Several values for one entry are separate records, joined by “and”; a condition that tells them apart may be missing. Equal values may be shown once.
Key:
Type in all cases: cell-based
KCNQ2 L249A = molecular target: T1, KCNQ2 L249A (Rattus norvegicus, UniProt O88943, L249A); assay: Whole-cell recording of KCNQ2 L249A mutant
T1 construct: expressed in transfected cells
Source text: (§1) FIG. 9. KCNQ2 point mutants selectively lose ZnPy sensitivity. […] Each mutation site was indicated based on the predicted transmembrane regions. Dashed line indicates the potentiation level of wt KCNQ2 channel in the absence of ZnPy. […] C. Modeling of the S5-pore-S6 region of KCNQ2.
(§2) Mutagenesis—Starting from KCNQ cDNAs, the KCNQ2 point mutants were constructed by recombinant PCR and verified by sequencing.
(§3) Electrophysiological Recording—Standard whole-cell recording was used. Pipettes were pulled from borosilicate glass capillaries (TW150-4, World Precision Instruments, Sarasota, Fla.). When filled with the intracellular solution, the pipettes have resistances of […]. During the recording, constant perfusion of extracellular solution was maintained using a BPS perfusion system (ALA, Westbury, N.Y.). Pipette solution contained (mM): KCl 145, MgCl2 1, EGTA 5, HEPES 10, MgATP 5 (pH 7.3); extracellular solution contained (mM): NaCl 140, KCl 3, CaCl2 2, MgCl2 1.5, HEPES 10, glucose 10 (pH 7.4). Current and voltage were recorded using an Axopatch-200A amplifier, filtered at 1 kHz and digitized using a DigiData 1322A with pClamp 9.2 software (Axon Instruments, Foster City, Calif.). Series resistance compensation was also used and set to 60-80%.

KCNQ2 [1] = molecular target: T2, KCNQ2 (Rattus norvegicus, UniProt O88943); assay: Non-radioactive rubidium efflux assay (KCNQ2 screen, HEK 293); parameters: expressed in transfected cells
Experimental: To identify compounds with agonistic activities for M currents, stable cell lines for both KCNQ2 and KCNQ2/3 were generated. Under a pre-calibrated condition of medium-level rubidium efflux responses, more than 20,000 small molecule compounds were screened at a concentration of 10 μM. The selected condition allowed for identification of both inhibitors and potentiators. Selected compounds either increased or decreased the rubidium responses by more than 15% when compared to the control. A subset of the compounds were selected and validated for both potency and specificity.
KCNQ2 screen—HEK 293 cells stably expressing rat KCNQ2 were resuspended in DMEM/F12 medium and plated at a density of 4×10^4/well in poly-L-Lysine coated 96-well plates. Cells were then incubated at 37° C. with 5% CO2 overnight. 30 μl/well DMEM/F12 medium containing 30 mM RbCl was added to the cells the next day, followed by incubation for an additional 3 hours. Cell plating and reagent dispensing were done using a Multidrop 384 dispenser (Thermo Electron Corporation).
Compound addition and Rb^+ efflux assay were programmed and performed on a Cybi-Well™ system and Tekbench liquid handling system (Tekcel Inc., Hopkinton, Mass.), respectively. […] Rb^+ concentrations in both supernatant and cell lysates were measured by atomic absorption spectrometry using an ICR8000 instrument (Aurora Biomed, Vancouver, Canada).

KCNQ2(L249A/L275A) = molecular target: T3, KCNQ2(L249A/L275A) (Rattus norvegicus, UniProt O88943, L249A/L275A); assay: Whole-cell recording of KCNQ2(L249A/L275A) mutant
T3 construct: expressed in transfected cells
Source text: as §1, §2, §3

KCNQ2 [2] = molecular target: T2, KCNQ2; assay: Single channel outside-out patch recording of KCNQ2; parameters: expressed in transfected cells; host or cells: CHO cells
Experimental: For single channel recording procedure, outside-out patch recording was used. The pipettes had resistances of 7-15 MΩ when filled with the intracellular solution of the following composition (mM): KCl 145, MgCl2 1, EGTA 5, HEPES 10, MgATP 5 (pH 7.3). Extracellular solution contained (mM): NaCl 150, KCl 5, CaCl2 2, MgCl2 1, HEPES 10, glucose 10 (pH 7.4). Current and voltage were recorded using an Axopatch-200B amplifier, sample at 4 kHz and filtered at 200 Hz, and digitized using a DigiData 1322A with pClamp 9.2 software (Axon Instruments, Foster City, Calif.).
The open probability (Po) and single channel current (i) were calculated by fitting all-point histograms with single- or multi-Gaussian curves. The ratio of the area under the fitted ‘open’ Gaussian to the total area under the entire Gaussian was taken as Po, and the difference between the fitted “closed” and “open” peaks was taken as i, single channel conductance (γ) was calculated by the equation: γ=i/(V−V5).

KCNQ2(Y284C) = molecular target: T4, KCNQ2(Y284C) (Rattus norvegicus, UniProt O88943, Y284C); assay: Whole-cell recording of KCNQ2(Y284C) BFNC mutant in CHO cells; details: 10 μM ZnPy
T4 construct: expressed in transfected cells; host or cells: CHO cells, transient
Experimental: FIG. 11. ZnPy effects on BFNC mutant channels expressed in CHO cells. A. whole-cell currents of KCNQ2(R207W), KCNQ2(Y284C), and KCNQ2(A306T) were recorded in the absence (left) and presence (right) of 10 μM ZnPy, Vh was −80 mV, in 10 mV voltage steps from −70 mV to +50 mV. B. a histogram plotting potentiation effects on KCNQ2 wild type (wt) and BFNC mutants (R207W, Y284C and […]) by ZnPy (filled box) and retigabine (open box) (n≧4, * p<0.001, ** p<0.05).
as §2
as §3, with “Series resistance compensation was also used and set to 60-80%.” left out

With `S=c1ccccn1[O][Zn][O]n1ccccc1=S` [ZnPy, Zinc Pyrithione] the “change in V1/2 caused by ZnPy” value (KCNQ2 L249A) was “significant reduction on changes in V1/2”, the “elevation of KCNQ activity by rubidium efflux” value (KCNQ2 [1]) was “unusual potency in elevating KCNQ activities” and the “V1/2 shift caused by ZnPy” value (KCNQ2(L249A/L275A)) was “completely abolished the V1/2 shift”. For the same compound, the “folds of current increase” value (KCNQ2(L249A/L275A); +50 mV, ZnPy) was 8.6±2.2 folds, the “single channel open probability (Po)” value (KCNQ2 [2]; 0 mV, 10 μM ZnPy, control 0.13) was 0.77±0.06 and 0.77 and the “fitted unitary current amplitude” value (KCNQ2 [2]; 0 mV, 10 μM ZnPy, control 0.51 pA) was 0.52 pA. For the same compound, the “fold increase in Po” value (KCNQ2 [2]; 10 μM ZnPy) was 5.9 fold, the single channel conductance (KCNQ2 [2]; in the presence or absence of ZnPy) was 6.6±0.15 pS and the fold current increase (KCNQ2(Y284C)) was “more than 3 fold”.
